Measured values taken from patent US20150105252A1, “SUBSTITUTED PYRAZOLES AS HERBICIDES” (E I DU PONT DE NEMOURS AND COMPANY, priority 2013, published 2015).

Legend:
Experiment in all cases: Test F preemergence
crabgrass, Brazil = type: in vivo, Digitaria horizontalis
Description: (§1) Seeds of plant species selected from corn (Zea mays), soybean (Glycine max), velvetleaf (Abutilon theophrasti), lambsquarters (Chenopodium album), wild poinsettia (Euphorbia heterophylla), pigweed, palmer (palmer pigweed, Amaranthus palmeri), common waterhemp (Amaranthus rudis), surinam grass (Brachiaria decumbens), large crabgrass (Digitaria sanguinalis), crabgrass, Brazil (Brazilian crabgrass, Digitaria horizontalis), fall panicum (Panicum dichotomiflorum), giant foxtail (Setaria faberii), green foxtail (Setaria viridis), goosegrass (Eleusine indica), johnsongrass (Sorghum halepense), common ragweed (Ambrosia elation), barnyardgrass (Echinochloa crus-galli), southern sandbur (Cenchrus echinatus), arrowleaf sida (Sida rhombifolia), Italian ryegrass (Lolium multiflorum), dayflower, VA (Virginia (VA) dayflower, Commelina virginica), field bindweed (Convolvulus arvensis), cocklebur (common cocklebur, Xanthium strumarium), morningglory (Ipomoea coccinea), nightshade (eastern black nightshade, Solanum ptycanthum), kochia (Kochia scoparia), yellow nutsedge (Cyperus esculentus), and hairy beggarticks (Bidens pilosa), were planted into a silt loam soil and treated preemergence with test chemicals formulated in a non-phytotoxic solvent mixture which included a surfactant.
(§2) At the same time, plants from these crop and weed species and also horseweed (Canada horseweed, Conyza canadensis), smartweed (ladysthumb smartweed, Polygonum persicaria), waterhemp_RES1, (ALS & Triazine resistant common waterhemp, Amaranthus rudis), and waterhemp_RES2, (ALS & HPPD resistant common waterhemp, Amaranthus rudis) were treated with postemergence applications of test chemicals formulated in the same manner. Plants ranged in height from 2 to 18 cm for postemergence treatments (1- to 4-leaf stage). Treated plants and controls were maintained in a greenhouse for 14 to 21 days, after which time all species were compared to controls and visually evaluated. Plant response ratings, summarized in Table F, are based on a scale of 0 to 100 where 0 is no effect and 100 is complete control. A dash (-) response means no test result.

Surinam grass = type: in vivo, Brachiaria decumbens
Description: as §1, §2

common ragweed = type: in vivo, Ambrosia elation
Description: as §1, §2

Italian ryegrass = type: in vivo, Lolium multiflorum
Description: as §1, §2

[1] = Preemergence, 16 g ai/ha, scale 0 to 100
[2] = Preemergence, 62 g ai/ha, scale 0 to 100
[3] = Preemergence, 125 g ai/ha, scale 0 to 100
[4] = preemergence, 8 g ai/ha, scale 0 to 100, 100 is complete control
[5] = preemergence, 16 g ai/ha, scale 0 to 100, 100 is complete control
[6] = Preemergence, 250 g ai/ha, scale 0 to 100

Row | SMILES | Plant response rating, Crabgrass, Brazil (crabgrass, Brazil; [1]) | Plant response rating, Crabgrass, Brazil (crabgrass, Brazil; [2]) | Plant response rating, Crabgrass, Brazil (crabgrass, Brazil; [3]) | Plant response rating, Crabgrass, Brazil (crabgrass, Brazil; [4]) | Plant response rating, Crabgrass, Brazil (crabgrass, Brazil; [5]) | Plant response rating, Surinam Grass (Surinam grass; [2]) | Plant response rating, Surinam Grass (Surinam grass; [3]) | Plant response rating, Surinam Grass (Surinam grass; [4]) | Plant response rating, Surinam Grass (Surinam grass; [5]) | Plant response rating, Common Ragweed (common ragweed; [1]) | Plant response rating, Common Ragweed (common ragweed; [2]) | Plant response rating, Common Ragweed (common ragweed; [3]) | Plant response rating, Common Ragweed (common ragweed; [4]) | Plant response rating, Common Ragweed (common ragweed; [5]) | Plant response rating, Italian Ryegrass (Italian ryegrass; [2]) | Plant response rating, Italian Ryegrass (Italian ryegrass; [3]) | Plant response rating, Italian Ryegrass (Italian ryegrass; [4]) | Plant response rating, Italian Ryegrass (Italian ryegrass; [5]) | further results
1 | CCNC(=O)c1cc(CC)n(Cc2ccnc(C(F)(F)F)c2)n1 [Compound 196] | 100 | 100 | 100 | 30 | 75 | 25 | 70 | 0 | 0 | 65 | 70 | 90 | 0 | 30 | 20 | 50 | 0 | 0 | –
2 | Cc1cc(C(=O)NC(C)C)nn1Cc1ccnc(C(F)(F)F)c1 [Compound 197] | 85 | 100 | 100 | 0 | 75 | 20 | 20 | 0 | 0 | 35 | 40 | 80 | 0 | 0 | 30 | 30 | 0 | 0 | –
3 | CCc1cc(C(=O)NC2CC2)nn1Cc1ccnc(OCC(F)(F)F)c1 [Compound 200] | 35 | 95 | 100 | – | 0 | 5 | 65 | – | 0 | 0 | 0 | 5 | – | 0 | 0 | 60 | – | 0 | Plant response rating, Crabgrass, Brazil (crabgrass, Brazil; [6]): 100; Plant response rating, Surinam Grass (Surinam grass; [6]): 95; Plant response rating, Common Ragweed (common ragweed; [6]): 30; Plant response rating, Italian Ryegrass (Italian ryegrass; [6]): 75
